Structures can show the parent of a compound that is named as a salt.
What was measured:
[1] = Specific surface area of dronedarone HCl particles (BET method); assay type: physicochemical; settings: particles after crystallization and Jetmill MC-50 micronization
Description: The specific surface area can be determined using the BET method.

[2] = Particle size d90 by laser light scattering (Malvern Mastersizer MS 2000); assay type: physicochemical; settings: particles after crystallization and Jetmill MC-50 micronization
Description: As used herein d90<x means that at least 90% by volume of the particles have a particle size below x. The particle size can be determined by laser light scattering for instance using a Malvern Mastersizer Apparatus MS 2000 equipped with a Hydro S dispersion unit. Silicon fluid F10 may be used as dispersion medium.

[3] = Dissolution test of Dronedarone HCl 400 mg tablets (Apparatus 2 paddle); assay type: physicochemical; settings: at 60 minutes, paddle 75 rpm, 1000 ml Buffer Solution pH 4.5
Procedure: The dissolution profiles of several of the pharmaceutical compositions exemplified above are determined.
Dissolution conditions for Dronedarone HCl 400 mg tablets: • Apparatus: 2 - Paddle (USP and Ph. Eur.) • Rotation speed: 75 rpm • Medium: 1000 ml Buffer Solution pH 4.5
API 1 or API 2 was included in the pharmaceutical composition as disclosed in example 17.
The pharmaceutical compositions used in dissolution test shown in Figure 2 comprised different surfactants or no surfactant. The pharmaceutical compositions were prepared according to examples 16A-D, 17A and 18A by using API 1, API 2 or API 3.

[4] = aqueous media, pH 3-5 (maximal); cited from earlier work

Row | Compound | Specific surface area [1] | Particle size d90 [2] | dissolution rate ([3]; compositions of examples 16A-D, 17A and 18A, compared with compositions prepared from API 2 or API 3) | dissolution rate ([3]; tablet composition of example 17, compared with same composition prepared from API 2) | solubility [4]
1 | CCCCc1oc2ccc(NS(C)(=O)=O)cc2c1C(=O)c1ccc(OCCCN(CCCC)CCCC)cc1.Cl [API 1] | 8.3 m^2/g | 5.1 µm | substantial lower dissolution rate | substantial lower dissolution rate | 
2 | CCCCc1oc2ccc(NS(C)(=O)=O)cc2c1C(=O)c1ccc(OCCCN(CCCC)CCCC)cc1.Cl [API 2] | 6.2 m^2/g | 7.1 µm |  |  | 
3 | CCCCc1oc2ccc(NS(C)(=O)=O)cc2c1C(=O)c1ccc(OCCCN(CCCC)CCCC)cc1.Cl [API 3] | 6.0 m^2/g | 7.4 µm |  |  | 
4 | CCCCc1oc2ccc(NS(C)(=O)=O)cc2c1C(=O)c1ccc(OCCCN(CCCC)CCCC)cc1 [dronedarone hydrochloride, N-(2-butyl-3-(p-(3-(dibutylamino)propoxy)benzoyl)-5-benzofuranyl)methanesulfonamide] |  |  |  |  | 1000 to 2000 µg/mL
